# Values quoted from earlier work as cited in patent US5554621A, “Dihydropyridine NPY antagonists: nitrogen heterocyclic derivatives” (Bristol-Myers Squibb Company, priority 1995, dated 1996).
# Assays:
# [1] = system: NPY-induced pressor response; conditions: pithed rat
# [2] = system: NPY-induced increase in intracellular Ca++ in SK-N-Mc cells
# [3] = system: NPY-induced contractions in guinea pig basilar artery
# NPY1 = target: T1, NPY1 (Rattus norvegicus, UniProt P21555)
# T1 construct: vasoconstrictive activity of the NPY1 agonist
# T1 sequence (P21555 1-382): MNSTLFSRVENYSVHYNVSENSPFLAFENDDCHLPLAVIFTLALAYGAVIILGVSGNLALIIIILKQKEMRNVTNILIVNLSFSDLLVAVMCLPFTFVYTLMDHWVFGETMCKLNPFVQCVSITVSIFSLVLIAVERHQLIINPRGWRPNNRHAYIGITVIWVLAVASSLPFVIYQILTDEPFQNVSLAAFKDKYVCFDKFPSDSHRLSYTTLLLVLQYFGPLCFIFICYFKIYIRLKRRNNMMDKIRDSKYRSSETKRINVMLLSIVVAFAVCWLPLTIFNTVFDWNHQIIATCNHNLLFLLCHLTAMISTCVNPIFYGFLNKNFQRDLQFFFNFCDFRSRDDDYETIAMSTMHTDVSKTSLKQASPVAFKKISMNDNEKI
# Y2 receptor = target: T2, Y2 receptor (Rattus norvegicus, UniProt Q9ERC0); conditions: functional selectivity for Y2 receptor
# T2 sequence (Q9ERC0 1-381): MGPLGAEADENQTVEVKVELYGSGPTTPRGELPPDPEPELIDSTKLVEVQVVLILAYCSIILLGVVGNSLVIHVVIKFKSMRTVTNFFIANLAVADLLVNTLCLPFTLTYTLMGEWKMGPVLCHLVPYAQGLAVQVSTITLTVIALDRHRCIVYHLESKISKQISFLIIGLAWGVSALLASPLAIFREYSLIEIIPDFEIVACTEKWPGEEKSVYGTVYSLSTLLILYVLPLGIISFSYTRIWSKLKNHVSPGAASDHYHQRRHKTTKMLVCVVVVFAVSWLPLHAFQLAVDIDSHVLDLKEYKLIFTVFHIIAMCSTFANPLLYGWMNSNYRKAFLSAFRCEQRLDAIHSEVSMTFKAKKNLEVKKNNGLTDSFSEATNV
# 3H-NPY in rat brain = conditions: read-out: IC50 (displacement of 3H-NPY)
# [4] = system: NPY-related increases in diastolic blood pressure; conditions: anesthetized guinea pig
# [5] = system: I-125 labeled NPY and PYY in human neuroblastoma cells
structure (smiles),measurement,setting,value
N=C(N)NCCC[C@@H](NC(=O)C(c1ccccc1)c1ccccc1)C(=O)NCc1ccc(O)cc1 [BIBP 3226],Antagonism of NPY-induced pressor response,[1],antagonizing
same,Antagonism of NPY-induced increase in intracellular Ca++,[2],antagonized
"O=P(O)(O)O[C@@H]1[C@H](OP(=O)(O)O)[C@H](O)[C@@H](O)[C@H](O)[C@H]1OP(=O)(O)O [D-Myo-inositol-1,2,6-triphosphate]",Antagonism of NPY-induced contractions,[3],potent but non-competitive antagonist
N=C(N)N(CCCCCCNCc1ccc2ccccc2c1)CCCCCCN(CCCCCCNCc1ccc2ccccc2c1)C(=N)N [Example 6b],"Effect on vasoconstrictive activity of NPY1 agonist [Leu31, Pro34]NPY",NPY1,no effect
same,Effect against NPY2 agonist NPY13-36,Y2 receptor,antagonized the effect
same,IC50,3H-NPY in rat brain,18.4 µM
same,Functional antagonism,rat femoral artery,functional antagonism
CN(C)CC1CCC(CNC(=N)c2ccc(CC(NC(=O)C(Cc3ccccc3)NS(=O)(=O)c3ccc4ccccc4c3)C(=O)N3CCCC3)cc2)CC1 (stereo not drawn) [SR 120819A],Antagonism of NPY-related increases in diastolic blood pressure,[4],antagonized
same,Displacement of I-125 labeled NPY and PYY,[5],displacing
